Source: patent US11584744B2 (UNIVERSITY OF WASHINGTON, priority 2017, dated 2023)
In brackets after ≈: the same amount, converted by molar mass. Several values for one entry are separate records, joined by “and”; a condition that tells them apart may be missing. Identical values can stand only once. Like-named read-outs stand apart in the source and are kept apart here.

Legend:
[1] = molecular target: T1, MetRS (T. brucei) (Trypanosoma brucei brucei, UniProt Q38C91); test: MetRS (T. brucei) enzyme inhibition; type: biochemical
T1 sequence (Q38C91 1-773): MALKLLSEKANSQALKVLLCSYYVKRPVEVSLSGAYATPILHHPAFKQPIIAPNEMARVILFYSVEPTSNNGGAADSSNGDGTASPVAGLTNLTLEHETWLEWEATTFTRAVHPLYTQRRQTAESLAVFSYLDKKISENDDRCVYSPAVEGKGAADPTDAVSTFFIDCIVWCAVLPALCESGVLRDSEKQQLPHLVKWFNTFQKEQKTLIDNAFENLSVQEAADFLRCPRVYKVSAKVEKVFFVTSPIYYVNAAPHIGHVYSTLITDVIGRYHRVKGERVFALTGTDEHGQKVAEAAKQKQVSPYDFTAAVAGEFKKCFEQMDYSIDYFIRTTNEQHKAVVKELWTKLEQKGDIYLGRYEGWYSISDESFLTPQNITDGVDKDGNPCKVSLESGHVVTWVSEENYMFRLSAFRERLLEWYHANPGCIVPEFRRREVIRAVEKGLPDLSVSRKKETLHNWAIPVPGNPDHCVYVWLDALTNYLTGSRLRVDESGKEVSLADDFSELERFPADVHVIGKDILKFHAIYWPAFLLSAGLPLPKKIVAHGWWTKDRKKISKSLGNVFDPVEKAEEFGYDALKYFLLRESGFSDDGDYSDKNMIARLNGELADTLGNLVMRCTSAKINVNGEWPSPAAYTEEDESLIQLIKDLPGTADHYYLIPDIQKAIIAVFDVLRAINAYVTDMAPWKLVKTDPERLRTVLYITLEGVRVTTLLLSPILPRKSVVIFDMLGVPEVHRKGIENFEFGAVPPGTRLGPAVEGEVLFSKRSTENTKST

[2] = system: T. cruzi; test: T. cruzi growth inhibition; type: cell-based, Trypanosoma cruzi; details: read-out: (E) T. cruzi EC50
[3] = system: C. parvum; test: C. parvum growth inhibition; type: cell-based, Cryptosporidium parvum; details: read-out: (J) C. parvum EC50
[4] = molecular target: MetRS (C. parvum) (Cryptosporidium parvum, UniProt Q5CVN0); test: MetRS (C. parvum) enzyme inhibition; type: biochemical; details: read-out: (C) MetRS (C. parvum) IC50
[5] = system: T. brucei; test: T. brucei growth inhibition; type: cell-based, Trypanosoma brucei; details: read-out: (D) T. brucei EC50
[6] = system: S. aureus MRSA (ATCC 33591); test: MIC susceptibility testing; type: cell-based, Staphylococcus aureus; details: MRSA ATCC33591; for MIC: Staphylococcus aureus, read-out: (G) MRSA (ATCC33591) MIC
How it was run: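 CLSI broth microdilution in triplicate, 5×10^5 CFU/mL final, ≤0.5% DMSO; MHB for S. aureus, CA-MHB for E. coli and E. faecium, CA-MHB plus 3% laked horse blood for S. pyogenes (5% CO2).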

[7] = system: S. aureus MSSA (ATCC 29213); test: MIC susceptibility testing; type: cell-based, Staphylococcus aureus; details: S. aureus ATCC 29213; for MIC: Staphylococcus aureus, read-out: (F) S. aureus (ATCC 29213) MIC

MetRS (C. parvum), sequence (Q5CVN0 entry or part of it): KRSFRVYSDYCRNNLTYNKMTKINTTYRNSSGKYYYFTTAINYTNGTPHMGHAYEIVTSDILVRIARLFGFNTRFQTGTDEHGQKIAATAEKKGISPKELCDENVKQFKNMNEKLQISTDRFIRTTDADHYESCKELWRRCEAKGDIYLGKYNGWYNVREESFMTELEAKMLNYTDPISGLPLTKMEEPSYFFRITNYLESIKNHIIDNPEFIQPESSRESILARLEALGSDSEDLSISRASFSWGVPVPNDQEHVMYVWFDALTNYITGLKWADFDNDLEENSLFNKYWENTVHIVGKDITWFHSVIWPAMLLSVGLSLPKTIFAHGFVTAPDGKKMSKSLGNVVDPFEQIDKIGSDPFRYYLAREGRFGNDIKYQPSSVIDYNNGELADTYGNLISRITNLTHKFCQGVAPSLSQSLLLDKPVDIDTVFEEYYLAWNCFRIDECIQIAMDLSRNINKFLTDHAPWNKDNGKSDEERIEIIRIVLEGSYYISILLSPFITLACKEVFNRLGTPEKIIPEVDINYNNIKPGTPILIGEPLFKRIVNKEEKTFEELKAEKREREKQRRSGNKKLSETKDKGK

IC50 [1] | EC50 ([2]; Trypanosoma cruzi) | EC50 ([3]; Cryptosporidium parvum) | IC50 [4] | EC50 ([5]; Trypanosoma brucei) | MIC [6] | MIC [7] | EC50 [5] | (F) S. aureus (ATCC 29213) MIC [7] | EC50 [2] | EC50 [3] | (G) MRSA (ATCC33591) MIC [6] | Structure (SMILES)
< 40 nM | 176 nM | 620 nM | < 40 nM | 9.56 nM | 0.405 µg/mL (≈ 0.966 µM) | 0.254 µg/mL (≈ 0.606 µM) | – | – | – | – | – | CCn1c(Cc2ccc(Cl)cc2Cl)cn(Cc2cc3nc(F)ccc3[nH]2)c1=O [Compound 2112, 5-(2,4-dichlorobenzyl)-1-ethyl-3-((5-fluoro-1H-pyrrolo[3,2-b]pyridin-2-yl)methyl)-1H-imidazol-2(3H)-one]
< 40 nM | 3880 nM | > 2000 nM | < 40 nM | 267 nM | > 2 µg/mL | > 2 µg/mL | – | – | – | – | – | COc1ccc(-c2cccc3c2CN(Cc2nc4c(N)ncnc4[nH]2)C3=O)c(Cl)c1 [Compound 2239, 2-((6-amino-9H-purin-8-yl)methyl)-4-(2-chloro-4-methoxyphenyl)isoindolin-1-one]
– | – | > 2000 nM | < 40 nM | 25.4 nM | 0.0378 µg/mL (≈ 0.0891 µM) | 0.0924 µg/mL (≈ 0.218 µM) | 17.3 nM | 0.0526, μg/ml and 0.0902 μg/ml | – | – | – | COc1ccc(-c2cccc3nn(Cc4nc5nc(Cl)ccc5[nH]4)cc23)c(Cl)c1 [Compound 2245, 2-({5-chloro-1H-imidazo[4,5-b]pyridin-2-yl}methyl)-4-(2-chloro-4-methoxyphenyl)-2H-indazole]
– | 17.9 nM | 359 nM | 55.6 nM | 6.68 nM | 0.115 µg/mL (≈ 0.253 µM) | 0.277 µg/mL (≈ 0.608 µM) | 5.68 nM | 0.497 µg/mL | 20.6 nM | 300 nM | – | COc1cc(Cl)c(-c2nccc3nc(Cc4nc5nc(Cl)ccc5[nH]4)cn23)cc1OC [Compound 2246, 2-({5-chloro-1H-imidazo[4,5-b]pyridin-2-yl}methyl)-5-(2-chloro-4,5-dimethoxyphenyl)imidazo[1,2-c]pyrimidine]
– | 165 nM | > 2000 nM | 277 nM | 71.5 nM | 1.82 µg/mL (≈ 3.72 µM) | 1.82 µg/mL (≈ 3.72 µM) | – | 2.93 µg/mL | – | – | – | COc1cc(Cl)c(-c2nccc3nc(Cc4nc5c(Cl)c(Cl)ccc5[nH]4)cn23)cc1OC [Compound 2255, 6,7-dichlor0-2-{[5-(2-chloro-4,5-dimethoxyphenyl)imidazo[1,2-c]pyrimidin-2-yl]methyl}-1H-1,3-benzodiazole]
– | 76.5 nM | 1940 nM | – | 12.3 nM | > 2 µg/mL | – | 20.3 nM | – | 77.2 nM | – | 1.59 µg/mL | COc1ccc(-c2nccc3nc(Cc4nc5ccc(Cl)nc5[nH]4)cn23)c(Cl)c1 [Compound 2256, 2-({5-chloro-1H-imidazo[4,5-b]pyridin-2-yl}methyl)-5-(2-chloro-4-methoxyphenyl)imidazo[1,2-c]pyrimidine]
